Km data for one compound are collected here from article PMC12364333, “Degradation of catecholate, hydroxamate, and carboxylate model siderophores by extracellular enzymes” (PLOS One, 2025).

SMILES strings stand for the structures.

In this assay the test system is T1, phenol oxidase (a tyrosinase).
T1 construct: gene PPO3
Description: initial rates of product formation ([…] h); Lineweaver-Burk plot. The assay is classed as biochemical, Agaricus bisporus. The note with it: O2 as oxidant; buffered at pH 7.0 (25 mM phosphate) and 20 °C in the general protocol; 0.01-1 mM protochelin; apo siderophore.

Turning to `O=C(NCCCCNC(=O)[C@H](CCCCNC(=O)c1cccc(O)c1O)NC(=O)c1cccc(O)c1O)c1cccc(O)c1O` [protochelin], the Km stood at 430 µM.

Broadly, the Km is the concentration of substrate that gives half-maximal velocity.
